Reference: the supplement of paper PMC10307832

Key:
Experiment in all cases: relative viability (nuclei count vs DMSO), 5 days (fraction); higher = more cells survive
ABC-1 = tested on: ABC-1
Procedure, shortened: (§1)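 Lung cancer cell lines were pin-tool dosed in 1536-well plates on the day after seeding, with either a lone drug or a fixed anchor-drug dose plus five library-drug doses (not always all listed) in √10 steps. Nuclei were counted on 4× images after 5 days. Relative viability is the ratio of treated-well to vehicle-well nuclei counts, with each value a median of duplicate plates.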

BEN = tested on: BEN
Procedure, shortened: as §1

EPLC-272H = tested on: EPLC-272H
Procedure, shortened: as §1

HCC-827 = tested on: HCC-827
Procedure, shortened: as §1

HOP-62 = tested on: HOP-62
Procedure, shortened: as §1

LU99A = tested on: LU99A
Procedure, shortened: as §1

NCI-H1355 = tested on: NCI-H1355
Procedure, shortened: as §1

NCI-H1666 = tested on: NCI-H1666
Procedure, shortened: as §1

NCI-H1792 = tested on: NCI-H1792
Procedure, shortened: as §1

NCI-H1975 = tested on: NCI-H1975
Procedure, shortened: as §1

NCI-H2170 = tested on: NCI-H2170
Procedure, shortened: as §1

NCI-H23 = tested on: NCI-H23
Procedure, shortened: as §1

NCI-H2405 = tested on: NCI-H2405
Procedure, shortened: as §1

NCI-H3122 = tested on: NCI-H3122
Procedure, shortened: as §1

NCI-H322M = tested on: NCI-H322M
Procedure, shortened: as §1

NCI-H358 = tested on: NCI-H358
Procedure, shortened: as §1

NCI-H520 = tested on: NCI-H520
Procedure, shortened: as §1

NCI-H596 = tested on: NCI-H596
Procedure, shortened: as §1

NCI-H647 = tested on: NCI-H647
Procedure, shortened: as §1

NCI-H727 = tested on: NCI-H727
Procedure, shortened: as §1

NCI-H838 = tested on: NCI-H838
Procedure, shortened: as §1

PC-14 = tested on: PC-14
Procedure, shortened: as §1

UMC-11 = tested on: UMC-11
Procedure, shortened: as §1

Which relative viability (ABC-1; first compound 0.08 µM) does the source give for `O=c1[nH]c2ccccc2n1C1CCN(CCCC(c2ccc(F)cc2)c2ccc(F)cc2)CC1` [Pimozide] + CS(=O)(=O)N1CCN(Cc2cc3nc(-c4cccc5[nH]ncc45)nc(N4CCOCC4)c3s2)CC1 [Pictilisib] (partner 1 µM) here?
The relative viability was 0.596.

What about the relative viability (ABC-1; first compound 0.253 µM) of the same compound?
The relative viability was 0.84.

And the relative viability (ABC-1; first compound 0.8 µM)?
The relative viability was 0.743.

And the relative viability (ABC-1; first compound 2.53 µM)?
Its relative viability is 0.589.

And the relative viability (ABC-1; first compound 8 µM)?
The relative viability was 0.474.

And the relative viability (BEN; first compound 0.08 µM)?
The relative viability was 0.627.

And the relative viability (BEN; first compound 0.253 µM)?
The relative viability was 0.565.

And the relative viability (BEN; first compound 0.8 µM)?
Its relative viability is 0.583.

What about the relative viability (BEN; first compound 2.53 µM) of the same compound?
The relative viability was 0.542.

What about the relative viability (BEN; first compound 8 µM) of the same compound?
The relative viability was 0.595.

And the relative viability (EPLC-272H; first compound 0.08 µM)?
The relative viability was 0.302.

And the relative viability (EPLC-272H; first compound 0.253 µM)?
The relative viability was 0.269.

And the relative viability (EPLC-272H; first compound 0.8 µM)?
The relative viability was 0.273.

And the relative viability (EPLC-272H; first compound 2.53 µM)?
The relative viability was 0.258.

What about the relative viability (EPLC-272H; first compound 8 µM) of the same compound?
Its relative viability is 0.238.

What about the relative viability (HCC-827; first compound 0.253 µM) of the same compound?
Its relative viability is 1.02.

And the relative viability (HCC-827; first compound 0.8 µM)?
The relative viability was 0.986.

What about the relative viability (HCC-827; first compound 2.53 µM) of the same compound?
The relative viability was 1.04.

And the relative viability (HCC-827; first compound 8 µM)?
The relative viability was 1.06.

And the relative viability (HOP-62; first compound 0.08 µM)?
Its relative viability is 0.687.

And the relative viability (HOP-62; first compound 0.253 µM)?
Its relative viability is 0.694.

And the relative viability (HOP-62; first compound 2.53 µM)?
Its relative viability is 0.687.

What about the relative viability (HOP-62; first compound 8 µM) of the same compound?
Its relative viability is 0.635.

And the relative viability (LU99A; first compound 0.08 µM)?
Its relative viability is 0.344.

What about the relative viability (LU99A; first compound 0.253 µM) of the same compound?
The relative viability was 0.284.

And the relative viability (LU99A; first compound 0.8 µM)?
The relative viability was 0.314.

What about the relative viability (LU99A; first compound 2.53 µM) of the same compound?
The relative viability was 0.302.

What about the relative viability (LU99A; first compound 8 µM) of the same compound?
The relative viability was 0.334.

What about the relative viability (NCI-H1355; first compound 0.08 µM) of the same compound?
Its relative viability is 0.371.

What about the relative viability (NCI-H1355; first compound 0.253 µM) of the same compound?
The relative viability was 0.417.

What about the relative viability (NCI-H1355; first compound 0.8 µM) of the same compound?
Its relative viability is 0.436.

What about the relative viability (NCI-H1355; first compound 2.53 µM) of the same compound?
Its relative viability is 0.466.

And the relative viability (NCI-H1355; first compound 8 µM)?
Its relative viability is 0.357.

What about the relative viability (NCI-H1666; first compound 0.08 µM) of the same compound?
Its relative viability is 0.323.

And the relative viability (NCI-H1666; first compound 0.253 µM)?
Its relative viability is 0.512.

And the relative viability (NCI-H1666; first compound 0.8 µM)?
The relative viability was 0.439.

What about the relative viability (NCI-H1666; first compound 2.53 µM) of the same compound?
The relative viability was 0.385.

And the relative viability (NCI-H1666; first compound 8 µM)?
The relative viability was 0.465.

What about the relative viability (NCI-H1792; first compound 0.08 µM) of the same compound?
The relative viability was 0.274.

What about the relative viability (NCI-H1792; first compound 0.253 µM) of the same compound?
Its relative viability is 0.292.

And the relative viability (NCI-H1792; first compound 0.8 µM)?
Its relative viability is 0.25.

What about the relative viability (NCI-H1792; first compound 2.53 µM) of the same compound?
Its relative viability is 0.26.

And the relative viability (NCI-H1792; first compound 8 µM)?
Its relative viability is 0.314.

What about the relative viability (NCI-H1975; first compound 0.08 µM) of the same compound?
The relative viability was 0.282.

And the relative viability (NCI-H1975; first compound 0.253 µM)?
The relative viability was 0.262.

And the relative viability (NCI-H1975; first compound 0.8 µM)?
The relative viability was 0.297.

And the relative viability (NCI-H1975; first compound 2.53 µM)?
Its relative viability is 0.28.

What about the relative viability (NCI-H1975; first compound 8 µM) of the same compound?
The relative viability was 0.202.

And the relative viability (NCI-H2170; first compound 0.08 µM)?
The relative viability was 0.308.

What about the relative viability (NCI-H2170; first compound 0.253 µM) of the same compound?
The relative viability was 0.382.

What about the relative viability (NCI-H2170; first compound 0.8 µM) of the same compound?
Its relative viability is 0.299.

What about the relative viability (NCI-H2170; first compound 2.53 µM) of the same compound?
The relative viability was 0.326.

What about the relative viability (NCI-H2170; first compound 8 µM) of the same compound?
The relative viability was 0.236.

And the relative viability (NCI-H23; first compound 0.08 µM)?
The relative viability was 0.589.

What about the relative viability (NCI-H23; first compound 0.253 µM) of the same compound?
The relative viability was 0.431.

What about the relative viability (NCI-H23; first compound 0.8 µM) of the same compound?
Its relative viability is 0.448.

What about the relative viability (NCI-H23; first compound 2.53 µM) of the same compound?
The relative viability was 0.429.

What about the relative viability (NCI-H23; first compound 8 µM) of the same compound?
The relative viability was 0.468.

What about the relative viability (NCI-H2405; first compound 0.08 µM) of the same compound?
The relative viability was 0.482.

What about the relative viability (NCI-H2405; first compound 0.253 µM) of the same compound?
The relative viability was 0.371.

What about the relative viability (NCI-H2405; first compound 0.8 µM) of the same compound?
The relative viability was 0.422.

And the relative viability (NCI-H2405; first compound 2.53 µM)?
The relative viability was 0.42.

And the relative viability (NCI-H2405; first compound 8 µM)?
Its relative viability is 0.349.

What about the relative viability (NCI-H3122; first compound 0.08 µM) of the same compound?
The relative viability was 0.523.

And the relative viability (NCI-H3122; first compound 0.253 µM)?
Its relative viability is 0.588.

What about the relative viability (NCI-H3122; first compound 0.8 µM) of the same compound?
Its relative viability is 0.514.

And the relative viability (NCI-H3122; first compound 2.53 µM)?
The relative viability was 0.594.

And the relative viability (NCI-H3122; first compound 8 µM)?
Its relative viability is 0.573.

What about the relative viability (NCI-H322M; first compound 0.253 µM) of the same compound?
The relative viability was 0.509.

And the relative viability (NCI-H322M; first compound 0.8 µM)?
Its relative viability is 0.478.

And the relative viability (NCI-H322M; first compound 2.53 µM)?
The relative viability was 0.482.

And the relative viability (NCI-H322M; first compound 8 µM)?
The relative viability was 0.382.

And the relative viability (NCI-H358; first compound 0.08 µM)?
The relative viability was 0.292.

What about the relative viability (NCI-H358; first compound 0.253 µM) of the same compound?
Its relative viability is 0.324.

And the relative viability (NCI-H358; first compound 0.8 µM)?
The relative viability was 0.384.

And the relative viability (NCI-H358; first compound 2.53 µM)?
The relative viability was 0.356.

What about the relative viability (NCI-H358; first compound 8 µM) of the same compound?
Its relative viability is 0.396.

What about the relative viability (NCI-H520; first compound 0.08 µM) of the same compound?
Its relative viability is 0.294.

And the relative viability (NCI-H520; first compound 0.253 µM)?
Its relative viability is 0.337.

And the relative viability (NCI-H520; first compound 0.8 µM)?
The relative viability was 0.248.

What about the relative viability (NCI-H520; first compound 2.53 µM) of the same compound?
The relative viability was 0.256.

What about the relative viability (NCI-H520; first compound 8 µM) of the same compound?
The relative viability was 0.259.

What about the relative viability (NCI-H596; first compound 0.08 µM) of the same compound?
The relative viability was 0.414.

And the relative viability (NCI-H596; first compound 0.253 µM)?
Its relative viability is 0.488.

And the relative viability (NCI-H596; first compound 0.8 µM)?
The relative viability was 0.251.

What about the relative viability (NCI-H596; first compound 2.53 µM) of the same compound?
The relative viability was 0.356.

And the relative viability (NCI-H596; first compound 8 µM)?
The relative viability was 0.344.

And the relative viability (NCI-H647; first compound 0.08 µM)?
The relative viability was 0.389.

And the relative viability (NCI-H647; first compound 0.253 µM)?
Its relative viability is 0.39.

And the relative viability (NCI-H647; first compound 0.8 µM)?
Its relative viability is 0.448.

What about the relative viability (NCI-H647; first compound 2.53 µM) of the same compound?
The relative viability was 0.383.

What about the relative viability (NCI-H647; first compound 8 µM) of the same compound?
Its relative viability is 0.334.

What about the relative viability (NCI-H727; first compound 0.08 µM) of the same compound?
Its relative viability is 0.367.

And the relative viability (NCI-H727; first compound 0.253 µM)?
The relative viability was 0.357.

And the relative viability (NCI-H727; first compound 0.8 µM)?
Its relative viability is 0.389.

What about the relative viability (NCI-H727; first compound 2.53 µM) of the same compound?
Its relative viability is 0.308.

And the relative viability (NCI-H727; first compound 8 µM)?
The relative viability was 0.434.

And the relative viability (NCI-H838; first compound 0.08 µM)?
Its relative viability is 0.484.

And the relative viability (NCI-H838; first compound 0.253 µM)?
The relative viability was 0.454.

What about the relative viability (NCI-H838; first compound 0.8 µM) of the same compound?
The relative viability was 0.444.

What about the relative viability (NCI-H838; first compound 2.53 µM) of the same compound?
Its relative viability is 0.447.

What about the relative viability (NCI-H838; first compound 8 µM) of the same compound?
The relative viability was 0.427.

What about the relative viability (PC-14; first compound 0.253 µM) of the same compound?
Its relative viability is 0.631.

And the relative viability (PC-14; first compound 0.8 µM)?
Its relative viability is 0.738.

What about the relative viability (PC-14; first compound 2.53 µM) of the same compound?
Its relative viability is 0.716.

What about the relative viability (PC-14; first compound 8 µM) of the same compound?
Its relative viability is 0.634.

And the relative viability (UMC-11; first compound 0.08 µM)?
The relative viability was 0.79.

And the relative viability (UMC-11; first compound 0.253 µM)?
Its relative viability is 0.804.

What about the relative viability (UMC-11; first compound 0.8 µM) of the same compound?
Its relative viability is 0.746.

And the relative viability (UMC-11; first compound 2.53 µM)?
Its relative viability is 0.699.

What about the relative viability (UMC-11; first compound 8 µM) of the same compound?
Its relative viability is 0.906.
